*1 amine or outer side, *2 acyl side, *3 side chain or, on linkers, in order; H or OH if unused. Where a SMILES comes first, the peptide text is derived from it. Side-chain parts run from the residue outwards. [ ]: non-standard residue; d: D form. The star is where a group is joined. C20 diacid = O=C(O)CCCCCCCCCCCCCCCCCCC(=O)*; αMePhe(2-F) = C[C@](N)(Cc1ccccc1F)C(=O)O; γGlu = O=C(O)[C@H](CCC(=O)[*:2])N[*:1]; αMeF = C[C@](N)(Cc1ccccc1)C(=O)O; 4Pal = N[C@@H](Cc1ccncc1)C(=O)O; αMeL = CC(C)C[C@](C)(N)C(=O)O; AEEA = NCCOCCOCC(=O)O; Aib = CC(C)(N)C(=O)O
What was measured:
[1] = target: T1, human glucagon receptor (GcgR) (Homo sapiens, UniProt P47871); assay: cAMP functional assay (HTRF) in HEK293 cells in presence of 0.1% casein; format: cell-based; conditions: HEK293 cells expressing human GcgR, geometric mean, read-out: hGcgR cAMP Rel EC50 nM (SEM, n)
T1 construct: expressed in transfected cells; host or cells: HEK293

[2] = target: T2, human glucose-dependent insulinotropic peptide receptor (GIPR) (Homo sapiens, UniProt P48546); assay: as above; format: cell-based; conditions: HEK293 cells expressing human GIPR, geometric mean, read-out: hGIPR cAMP Rel EC50 nM (SEM, n)
T2 construct: expressed in transfected cells; host or cells: HEK293
T2 sequence (P48546 22-466): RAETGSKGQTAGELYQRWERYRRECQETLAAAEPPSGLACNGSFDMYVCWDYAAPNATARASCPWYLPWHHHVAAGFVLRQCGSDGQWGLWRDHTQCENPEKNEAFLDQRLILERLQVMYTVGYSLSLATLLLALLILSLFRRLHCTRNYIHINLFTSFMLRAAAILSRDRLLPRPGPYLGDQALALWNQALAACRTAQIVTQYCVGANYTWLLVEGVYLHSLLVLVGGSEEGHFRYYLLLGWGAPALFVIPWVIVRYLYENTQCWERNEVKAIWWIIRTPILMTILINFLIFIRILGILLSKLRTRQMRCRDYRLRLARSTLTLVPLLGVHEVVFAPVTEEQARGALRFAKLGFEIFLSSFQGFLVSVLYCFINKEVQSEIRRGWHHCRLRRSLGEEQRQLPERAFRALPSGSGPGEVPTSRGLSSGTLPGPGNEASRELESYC

T1 sequence (P47871 26-477): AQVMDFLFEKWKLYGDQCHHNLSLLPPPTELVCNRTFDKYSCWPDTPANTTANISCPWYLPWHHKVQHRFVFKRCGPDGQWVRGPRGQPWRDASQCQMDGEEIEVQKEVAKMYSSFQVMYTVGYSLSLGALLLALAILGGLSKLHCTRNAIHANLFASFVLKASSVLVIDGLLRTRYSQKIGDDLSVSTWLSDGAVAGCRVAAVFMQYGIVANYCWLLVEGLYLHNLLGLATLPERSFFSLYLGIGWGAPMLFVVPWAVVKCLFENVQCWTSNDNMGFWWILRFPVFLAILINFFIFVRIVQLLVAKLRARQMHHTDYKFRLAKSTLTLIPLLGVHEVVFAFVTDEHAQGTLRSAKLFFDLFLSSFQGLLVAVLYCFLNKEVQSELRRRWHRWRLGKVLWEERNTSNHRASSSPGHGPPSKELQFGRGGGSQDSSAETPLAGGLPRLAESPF

Row | SMILES | EC50 [1] [nM] | EC50 [2] [nM]
1 | CC[C@H](C)[C@H](NC(=O)[C@H](Cc1ccccc1)NC(=O)[C@@H](NC(=O)CNC(=O)[C@H](CCC(=O)O)NC(=O)C(C)(C)NC(=O)[C@@H](N)Cc1ccc(O)cc1)[C@@H](C)O)C(=O)N[C@@H](CO)C(=O)N[C@@H](CC(=O)O)C(=O)N[C@@H](Cc1ccc(O)cc1)C(=O)N[C@@H](CO)C(=O)N[C@H](C(=O)N[C@@](C)(CC(C)C)C(=O)N[C@@H](CC(C)C)C(=O)N[C@@H](CC(=O)O)C(=O)N[C@@H](CCCCN)C(=O)N[C@@H](CCCCNC(=O)COCCOCCNC(=O)COCCOCCNC(=O)CC[C@H](NC(=O)CCCCCCCCCCCCCCCCC(=O)O)C(=O)O)C(=O)N[C@@H](Cc1c[nH]cn1)C(=O)N[C@@H](CCC(N)=O)C(=O)NC(C)(C)C(=O)N[C@@H](CC(=O)O)C(=O)N[C@@H](Cc1ccccc1)C(=O)N[C@H](C(=O)N[C@@H](CCC(=O)O)C(=O)N[C@@H](Cc1ccncc1)C(=O)N[C@@H](CC(C)C)C(=O)N[C@@H](CC(C)C)C(=O)N[C@@H](C)C(=O)NCC(=O)NCC(=O)N1CCC[C@H]1C(=O)N[C@@H](CO)C(=O)N[C@@H](CO)C(=O)NCC(=O)N[C@@H](C)C(=O)N1CCC[C@H]1C(=O)N1CCC[C@H]1C(=O)N1CCC[C@H]1C(=O)N[C@@H](CO)C(N)=O)C(C)C)[C@@H](C)CC [Example 49] | 2860 | 0.0156
2 | CC[C@H](C)[C@H](NC(=O)[C@H](CO)NC(=O)[C@H](Cc1ccc(O)cc1)NC(=O)[C@H](CC(=O)O)NC(=O)[C@H](CO)NC(=O)[C@@H](NC(=O)[C@](C)(Cc1ccccc1)NC(=O)[C@@H](NC(=O)CNC(=O)[C@H](CCC(=O)O)NC(=O)C(C)(C)NC(=O)[C@@H](N)Cc1ccc(O)cc1)[C@@H](C)O)[C@@H](C)CC)C(=O)N[C@@](C)(CC(C)C)C(=O)N[C@@H](CC(C)C)C(=O)N[C@@H](CC(=O)O)C(=O)N[C@@H](CCCCN)C(=O)N[C@@H](CCCCNC(=O)COCCOCCNC(=O)COCCOCCNC(=O)CC[C@H](NC(=O)CCCCCCCCCCCCCCCCCCC(=O)O)C(=O)O)C(=O)N[C@@H](Cc1c[nH]cn1)C(=O)N[C@@H](CCC(N)=O)C(=O)NC(C)(C)C(=O)N[C@@H](CC(=O)O)C(=O)N[C@@H](Cc1ccccc1)C(=O)N[C@H](C(=O)N[C@@H](CCC(=O)O)C(=O)N[C@@H](Cc1ccncc1)C(=O)N[C@@H](CC(C)C)C(=O)N[C@@H](CC(C)C)C(=O)N[C@@H](C)C(=O)NCC(=O)NCC(=O)N1CCC[C@H]1C(=O)N[C@@H](CO)C(=O)N[C@@H](CO)C(=O)NCC(=O)N[C@@H](C)C(=O)N1CCC[C@H]1C(=O)N1CCC[C@H]1C(=O)N1CCC[C@H]1C(=O)N[C@@H](CO)C(N)=O)C(C)C [Example 50] (H-Y[Aib]EGT[αMeF]ISDYSI[αMeL]LDKK([AEEA-AEEA-γGlu-C20 diacid])HQ[Aib]DFVE[4Pal]LLAGGPSSGAPPPS-NH2) | 371 | 0.0212
3 | CC[C@H](C)[C@H](NC(=O)[C@H](CO)NC(=O)[C@H](Cc1ccc(O)cc1)NC(=O)[C@H](CC(=O)O)NC(=O)[C@H](CO)NC(=O)[C@@H](NC(=O)[C@](C)(Cc1ccccc1F)NC(=O)[C@@H](NC(=O)CNC(=O)[C@H](CCC(=O)O)NC(=O)C(C)(C)NC(=O)[C@@H](N)Cc1ccc(O)cc1)[C@@H](C)O)[C@@H](C)CC)C(=O)N[C@@](C)(CC(C)C)C(=O)N[C@@H](CC(C)C)C(=O)N[C@@H](CC(=O)O)C(=O)N[C@@H](CCCCN)C(=O)N[C@@H](CCCCNC(=O)COCCOCCNC(=O)COCCOCCNC(=O)CC[C@H](NC(=O)CCCCCCCCCCCCCCCCCCC(=O)O)C(=O)O)C(=O)N[C@@H](Cc1c[nH]cn1)C(=O)N[C@@H](CCC(N)=O)C(=O)NC(C)(C)C(=O)N[C@@H](CC(=O)O)C(=O)N[C@@H](Cc1ccccc1)C(=O)N[C@H](C(=O)N[C@@H](CCC(=O)O)C(=O)N[C@@H](Cc1ccncc1)C(=O)N[C@@H](CC(C)C)C(=O)N[C@@H](CC(C)C)C(=O)N[C@@H](C)C(=O)NCC(=O)NCC(=O)N1CCC[C@H]1C(=O)N[C@@H](CO)C(=O)N[C@@H](CO)C(=O)NCC(=O)N[C@@H](C)C(=O)N1CCC[C@H]1C(=O)N1CCC[C@H]1C(=O)N1CCC[C@H]1C(=O)N[C@@H](CO)C(N)=O)C(C)C [Example 51] (H-Y[Aib]EGT[αMePhe(2-F)]ISDYSI[αMeL]LDKK([AEEA-AEEA-γGlu-C20 diacid])HQ[Aib]DFVE[4Pal]LLAGGPSSGAPPPS-NH2) | 308 | 0.0166
4 | CC[C@H](C)[C@H](NC(=O)[C@H](Cc1ccccc1)NC(=O)[C@@H](NC(=O)CNC(=O)[C@H](CCC(=O)O)NC(=O)C(C)(C)NC(=O)[C@@H](N)Cc1ccc(O)cc1)[C@@H](C)O)C(=O)N[C@@H](CO)C(=O)N[C@@H](CC(=O)O)C(=O)N[C@@H](Cc1ccc(O)cc1)C(=O)N[C@@H](CO)C(=O)N[C@H](C(=O)N[C@@](C)(CC(C)C)C(=O)N[C@@H](CC(C)C)C(=O)N[C@@H](CC(=O)O)C(=O)N[C@@H](CCCCN)C(=O)N[C@@H](CCCCNC(=O)COCCOCCNC(=O)COCCOCCNC(=O)CC[C@H](NC(=O)CCCCCCCCCCCCCCCCCCC(=O)O)C(=O)O)C(=O)N[C@@H](Cc1c[nH]cn1)C(=O)N[C@@H](CCC(N)=O)C(=O)NC(C)(C)C(=O)N[C@@H](CCC(=O)O)C(=O)N[C@@H](Cc1ccccc1)C(=O)N[C@H](C(=O)N[C@@H](CCC(=O)O)C(=O)N[C@@H](Cc1ccncc1)C(=O)N[C@@H](CC(C)C)C(=O)N[C@@H](CC(C)C)C(=O)N[C@@H](C)C(=O)NCC(=O)NCC(=O)N1CCC[C@H]1C(=O)N[C@@H](CO)C(=O)N[C@@H](CO)C(=O)NCC(=O)N[C@@H](C)C(=O)N1CCC[C@H]1C(=O)N1CCC[C@H]1C(=O)N1CCC[C@H]1C(=O)N[C@@H](CO)C(N)=O)C(C)C)[C@@H](C)CC [Example 52] | 337 | 0.0194
5 | CC[C@H](C)[C@H](NC(=O)[C@H](Cc1ccccc1)NC(=O)[C@@H](NC(=O)CNC(=O)[C@H](CCC(=O)O)NC(=O)C(C)(C)NC(=O)[C@@H](N)Cc1ccc(O)cc1)[C@@H](C)O)C(=O)N[C@@H](CO)C(=O)N[C@@H](CC(=O)O)C(=O)N[C@@H](Cc1ccc(O)cc1)C(=O)N[C@@H](CO)C(=O)N[C@H](C(=O)N[C@@](C)(CC(C)C)C(=O)N[C@@H](CC(C)C)C(=O)N[C@@H](CC(=O)O)C(=O)N[C@@H](CCCCN)C(=O)N[C@@H](CCCCNC(=O)COCCOCCNC(=O)COCCOCCNC(=O)CC[C@H](NC(=O)CCCCCCCCCCCCCCCCCCC(=O)O)C(=O)O)C(=O)N[C@@H](Cc1c[nH]cn1)C(=O)N[C@@H](CCC(N)=O)C(=O)NC(C)(C)C(=O)N[C@@H](CC(=O)O)C(=O)N[C@@H](Cc1ccccc1)C(=O)N[C@H](C(=O)N[C@@H](CCC(=O)O)C(=O)N[C@@H](Cc1ccc(O)cc1)C(=O)N[C@@H](CC(C)C)C(=O)N[C@@H](CC(C)C)C(=O)N[C@@H](C)C(=O)NCC(=O)NCC(=O)N1CCC[C@H]1C(=O)N[C@@H](CO)C(=O)N[C@@H](CO)C(=O)NCC(=O)N[C@@H](C)C(=O)N1CCC[C@H]1C(=O)N1CCC[C@H]1C(=O)N1CCC[C@H]1C(=O)N[C@@H](CO)C(N)=O)C(C)C)[C@@H](C)CC [Example 53] (H-Y[Aib]EGTFISDYSI[αMeL]LDKK([AEEA-AEEA-γGlu-C20 diacid])HQ[Aib]DFVEYLLAGGPSSGAPPPS-NH2) | 344 | 0.0194
6 | CC[C@H](C)[C@H](NC(=O)[C@H](Cc1ccccc1)NC(=O)[C@@H](NC(=O)CNC(=O)[C@H](CCC(=O)O)NC(=O)C(C)(C)NC(=O)[C@@H](N)Cc1ccc(O)cc1)[C@@H](C)O)C(=O)N[C@@H](CO)C(=O)N[C@@H](CC(=O)O)C(=O)N[C@@H](Cc1ccc(O)cc1)C(=O)N[C@@H](CO)C(=O)N[C@H](C(=O)N[C@@](C)(CC(C)C)C(=O)N[C@@H](CC(C)C)C(=O)N[C@@H](CC(=O)O)C(=O)N[C@@H](CCCCN)C(=O)N[C@@H](CCCCNC(=O)COCCOCCNC(=O)COCCOCCNC(=O)CC[C@H](NC(=O)CCCCCCCCCCCCCCCCCCC(=O)O)C(=O)O)C(=O)N[C@@H](Cc1c[nH]cn1)C(=O)N[C@@H](CCC(N)=O)C(=O)NC(C)(C)C(=O)N[C@@H](CC(=O)O)C(=O)N[C@@H](Cc1ccccc1)C(=O)N[C@H](C(=O)N[C@@H](CCC(=O)O)C(=O)N[C@@H](Cc1c[nH]c2ccccc12)C(=O)N[C@@H](CC(C)C)C(=O)N[C@@H](CC(C)C)C(=O)N[C@@H](C)C(=O)NCC(=O)NCC(=O)N1CCC[C@H]1C(=O)N[C@@H](CO)C(=O)N[C@@H](CO)C(=O)NCC(=O)N[C@@H](C)C(=O)N1CCC[C@H]1C(=O)N1CCC[C@H]1C(=O)N1CCC[C@H]1C(=O)N[C@@H](CO)C(N)=O)C(C)C)[C@@H](C)CC [Example 54] (H-Y[Aib]EGTFISDYSI[αMeL]LDKK([AEEA-AEEA-γGlu-C20 diacid])HQ[Aib]DFVEWLLAGGPSSGAPPPS-NH2) | > 5000 | 0.054

Source: US12723063B2, “GIPR-agonist compounds” (Eli Lilly and Company, priority 2019, dated 2026)
